Reference: patent US10894817B2, “Fatty acid modified urocortin-2 analogs for the treatment of diabetes and chronic kidney disease” (priority 2016, dated 2021)
Starred links: 1 amine or outer side, 2 acyl side, 3 side chain; linkers in the order of their positions; H or OH if unused. Non-standard residues stand in square brackets, D forms with d. Residues, ends and D or L forms follow the SMILES beside them. Groups on a side chain read outwards from the residue. *: point of attachment. C20 diacid = O=C(O)CCCCCCCCCCCCCCCCCCC(=O)*; C18 diacid = O=C(O)CCCCCCCCCCCCCCCCC(=O)*; γGlu = O=C(O)[C@H](CCC(=O)[*:2])N[*:1]; Palmitoyl = CCCCCCCCCCCCCCCC(=O)*; NMeI = CC[C@H](C)[C@H](NC)C(=O)O; AEEA = NCCOCCOCC(=O)O

These compounds were tested against T1, human CRHR2b (Homo sapiens, UniProt Q13324) (assay: human CRHR2b cell-based cAMP assay). Details: cAMP assay; Table 26, compounds of Example 9; read-out: hCRHR2b Average EC50.
T1 construct: expressed in transfected cells; host or cells: Chinese Hamster Ovary (CHO) cells, transient transfection
T1 sequence (Q13324 1-438 isoform Q13324-2): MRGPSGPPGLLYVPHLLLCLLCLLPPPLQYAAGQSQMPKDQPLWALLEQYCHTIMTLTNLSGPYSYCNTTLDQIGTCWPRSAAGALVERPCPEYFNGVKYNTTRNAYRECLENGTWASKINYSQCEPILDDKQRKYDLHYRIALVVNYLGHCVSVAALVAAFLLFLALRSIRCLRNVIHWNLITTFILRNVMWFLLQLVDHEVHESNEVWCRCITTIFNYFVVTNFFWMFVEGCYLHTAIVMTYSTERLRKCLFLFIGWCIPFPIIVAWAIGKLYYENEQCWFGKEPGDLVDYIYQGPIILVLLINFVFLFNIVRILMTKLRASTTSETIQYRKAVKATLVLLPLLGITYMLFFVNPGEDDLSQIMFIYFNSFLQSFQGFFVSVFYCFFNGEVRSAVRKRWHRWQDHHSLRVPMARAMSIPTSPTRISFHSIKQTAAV
How it was run: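 ED50 values are means ± SEM over several runs, curve-fitted from cAMP in pmol, calibrated against unlabeled-cAMP standards. Detection was HTRF competition, ratio 665/620 nm, after 30 min agonist exposure at 37 °C.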
Work on `CCCCCCCCCCCCCCCC(=O)N[C@@H](CCC(=O)NCCCC[C@H](NC(=O)[C@H](C)NC(=O)[C@H](CCC(N)=O)NC(=O)[C@H](CCC(N)=O)NC(=O)[C@H](CCCCN)NC(=O)[C@H](CCC(=O)O)NC(=O)[C@H](CCCCN)NC(=O)[C@H](CCC(=O)O)NC(=O)[C@H](CCC(N)=O)NC(=O)[C@H](CCCCN)NC(=O)[C@H](CCC(=O)O)NC(=O)[C@H](CCC(N)=O)NC(=O)[C@H](CCC(=O)O)NC(=O)[C@H](CC(C)C)NC(=O)[C@H](CC(C)C)NC(=O)[C@@H](NC(=O)[C@H](CCC(N)=O)NC(=O)[C@H](CC(C)C)NC(=O)[C@H](CC(C)C)NC(=O)CNC(=O)[C@@H](NC(=O)[C@@H]1CCCN1C(=O)[C@@H](NC(=O)[C@H](CC(=O)O)NC(=O)[C@H](CC(C)C)NC(=O)[C@H](CO)NC(=O)[C@H](CC(C)C)NC(=O)[C@@H](NC(=O)[C@@H](N)[C@@H](C)CC)C(C)C)C(C)C)[C@@H](C)CC)[C@@H](C)CC)C(=O)N[C@H](C(=O)N[C@@H](CC(N)=O)C(=O)N[C@@H](C)C(=O)N[C@@H](CCCNC(=N)N)C(=O)N[C@H](C(=O)N[C@@H](CC(C)C)C(=O)N[C@@H](C)C(=O)N[C@@H](CCCNC(=N)N)C(=O)N[C@H](C(N)=O)C(C)C)[C@@H](C)CC)[C@@H](C)O)C(=O)O` [Compound 37] (H-IVLSLDVPIGLLQILLEQEKQEKEKQQAK([γGlu-Palmitoyl])TNARILARV-NH2) yielded an EC50 of 24.1 nM. Compound `CCCCCCCCCCCCCCCC(=O)N[C@@H](CCC(=O)NCCOCCOCC(=O)NCCCC[C@H](NC(=O)[C@H](CCC(=O)O)NC(=O)[C@H](CCCCN)NC(=O)[C@H](CCC(=O)O)NC(=O)[C@H](CCC(N)=O)NC(=O)[C@H](CCCCN)NC(=O)[C@H](CCC(=O)O)NC(=O)[C@H](CCC(N)=O)NC(=O)[C@H](CCC(=O)O)NC(=O)[C@H](CC(C)C)NC(=O)[C@H](CC(C)C)NC(=O)[C@@H](NC(=O)[C@H](CCC(N)=O)NC(=O)[C@H](CC(C)C)NC(=O)[C@H](CC(C)C)NC(=O)CNC(=O)[C@@H](NC(=O)[C@@H]1CCCN1C(=O)[C@@H](NC(=O)[C@H](CC(=O)O)NC(=O)[C@H](CC(C)C)NC(=O)[C@H](CO)NC(=O)[C@H](CC(C)C)NC(=O)[C@@H](NC(=O)[C@@H](N)[C@@H](C)CC)C(C)C)C(C)C)[C@@H](C)CC)[C@@H](C)CC)C(=O)N[C@@H](CCC(N)=O)C(=O)N[C@@H](CCC(N)=O)C(=O)N[C@@H](C)C(=O)N[C@H](C(=O)N[C@H](C(=O)N[C@@H](CC(N)=O)C(=O)N[C@@H](C)C(=O)N[C@@H](CCCNC(=N)N)C(=O)N[C@H](C(=O)N[C@@H](CC(C)C)C(=O)N[C@@H](C)C(=O)N[C@@H](CCCNC(=N)N)C(=O)N[C@H](C(N)=O)C(C)C)[C@@H](C)CC)[C@@H](C)O)[C@@H](C)O)C(=O)O` [Compound 32] (H-IVLSLDVPIGLLQILLEQEKQEKEK([AEEA-γGlu-Palmitoyl])QQATTNARILARV-NH2) has an EC50 of 9.18 nM. `CC[C@H](C)[C@H](N)C(=O)N[C@H](C(=O)N[C@@H](CC(C)C)C(=O)N[C@@H](CO)C(=O)N[C@@H](CC(C)C)C(=O)N[C@@H](CC(=O)O)C(=O)N[C@H](C(=O)N1CCC[C@H]1C(=O)N[C@H](C(=O)NCC(=O)N[C@@H](CC(C)C)C(=O)N[C@@H](CC(C)C)C(=O)N[C@@H](CCC(N)=O)C(=O)N[C@H](C(=O)N[C@@H](CCCCNC(=O)COCCOCCNC(=O)COCCOCCNC(=O)CC[C@H](NC(=O)CC[C@H](NC(=O)CCCCCCCCCCCCCCCCC(=O)O)C(=O)O)C(=O)O)C(=O)N[C@@H](CC(C)C)C(=O)N[C@@H](CCC(=O)O)C(=O)N[C@@H](CCC(N)=O)C(=O)N[C@@H](CCC(=O)O)C(=O)N[C@@H](CCCCN)C(=O)N[C@@H](CCC(N)=O)C(=O)N[C@@H](CCC(=O)O)C(=O)N[C@@H](CCCCN)C(=O)N[C@@H](CCC(=O)O)C(=O)N[C@@H](CCCCN)C(=O)N[C@@H](CCC(N)=O)C(=O)N[C@@H](CCC(N)=O)C(=O)N[C@@H](C)C(=O)N[C@H](C(=O)N[C@H](C(=O)N[C@@H](CC(N)=O)C(=O)N[C@@H](C)C(=O)N[C@@H](CCC(N)=O)C(=O)N[C@H](C(=O)N[C@@H](CC(C)C)C(=O)N[C@@H](C)C(=O)N[C@@H](Cc1c[nH]cn1)C(=O)N[C@H](C(N)=O)C(C)C)[C@@H](C)CC)[C@@H](C)O)[C@@H](C)O)[C@@H](C)CC)[C@@H](C)CC)C(C)C)C(C)C` [Compound 41] (H-IVLSLDVPIGLLQIK([AEEA-AEEA-γGlu-γGlu-C18 diacid])LEQEKQEKEKQQATTNAQILAHV-NH2) gave an EC50 of 207 nM. Compound `CCCCCCCCCCCCCCCC(=O)N[C@@H](CCC(=O)N[C@@H](CCC(=O)NCCCC[C@H](NC(=O)[C@H](CCC(=O)O)NC(=O)[C@H](CCCCN)NC(=O)[C@H](CCC(=O)O)NC(=O)[C@H](CCC(N)=O)NC(=O)[C@H](CCCCN)NC(=O)[C@H](CCC(=O)O)NC(=O)[C@H](CCC(N)=O)NC(=O)[C@H](CCC(=O)O)NC(=O)[C@H](CC(C)C)NC(=O)[C@H](CC(C)C)NC(=O)[C@@H](NC(=O)[C@H](CCC(N)=O)NC(=O)[C@H](CC(C)C)NC(=O)[C@H](CC(C)C)NC(=O)CNC(=O)[C@@H](NC(=O)[C@@H]1CCCN1C(=O)[C@@H](NC(=O)[C@H](CC(=O)O)NC(=O)[C@H](CC(C)C)NC(=O)[C@H](CO)NC(=O)[C@H](CC(C)C)NC(=O)[C@@H](NC(=O)[C@@H](N)[C@@H](C)CC)C(C)C)C(C)C)[C@@H](C)CC)[C@@H](C)CC)C(=O)N[C@@H](CCC(N)=O)C(=O)N[C@@H](CCC(N)=O)C(=O)N[C@@H](C)C(=O)N[C@H](C(=O)N[C@H](C(=O)N[C@@H](CC(N)=O)C(=O)N[C@@H](C)C(=O)N[C@@H](CCCNC(=N)N)C(=O)N[C@H](C(=O)N[C@@H](CC(C)C)C(=O)N[C@@H](C)C(=O)N[C@@H](CCCNC(=N)N)C(=O)N[C@H](C(N)=O)C(C)C)[C@@H](C)CC)[C@@H](C)O)[C@@H](C)O)C(=O)O)C(=O)O` [Compound 31] (H-IVLSLDVPIGLLQILLEQEKQEKEK([γGlu-γGlu-Palmitoyl])QQATTNARILARV-NH2) has an EC50 of 3.2 nM. `CC[C@H](C)[C@H](NC)C(=O)N[C@H](C(=O)N[C@@H](CC(C)C)C(=O)N[C@@H](CO)C(=O)N[C@@H](CC(C)C)C(=O)N[C@@H](CC(=O)O)C(=O)N[C@H](C(=O)N1CCC[C@H]1C(=O)N[C@H](C(=O)NCC(=O)N[C@@H](CC(C)C)C(=O)N[C@@H](CC(C)C)C(=O)N[C@@H](CCC(N)=O)C(=O)N[C@H](C(=O)N[C@@H](CC(C)C)C(=O)N[C@@H](CC(C)C)C(=O)N[C@@H](CCC(=O)O)C(=O)N[C@@H](CCC(N)=O)C(=O)N[C@@H](CCC(=O)O)C(=O)N[C@@H](CCCCN)C(=O)N[C@@H](CCC(N)=O)C(=O)N[C@@H](CCC(=O)O)C(=O)N[C@@H](CCCCN)C(=O)N[C@@H](CCC(=O)O)C(=O)N[C@@H](CCCCN)C(=O)N[C@@H](CCC(N)=O)C(=O)N[C@@H](CCC(N)=O)C(=O)N[C@@H](C)C(=O)N[C@@H](CCCCNC(=O)COCCOCCNC(=O)CC[C@H](NC(=O)CC[C@H](NC(=O)CCCCCCCCCCCCCCCCCCC(=O)O)C(=O)O)C(=O)O)C(=O)N[C@@H](CCC(=O)O)C(=O)N[C@@H](CC(N)=O)C(=O)N[C@@H](C)C(=O)N[C@@H](CCC(=O)O)C(=O)N[C@H](C(=O)N[C@@H](CC(C)C)C(=O)N[C@@H](C)C(=O)N[C@@H](CCC(N)=O)C(=O)N[C@H](C(N)=O)C(C)C)[C@@H](C)CC)[C@@H](C)CC)[C@@H](C)CC)C(C)C)C(C)C` [Compound 57] (H-[NMeI]VLSLDVPIGLLQILLEQEKQEKEKQQAK([AEEA-γGlu-γGlu-C20 diacid])ENAEILAQV-NH2) showed an EC50 of 3.65 nM. With `CC[C@H](C)[C@H](N)C(=O)N[C@H](C(=O)N[C@@H](CC(C)C)C(=O)N[C@@H](CO)C(=O)N[C@@H](CC(C)C)C(=O)N[C@@H](CC(=O)O)C(=O)N[C@H](C(=O)N1CCC[C@H]1C(=O)N[C@H](C(=O)NCC(=O)N[C@@H](CC(C)C)C(=O)N[C@@H](CC(C)C)C(=O)N[C@@H](CCC(N)=O)C(=O)N[C@H](C(=O)N[C@@H](CC(C)C)C(=O)N[C@@H](CC(C)C)C(=O)N[C@@H](CCC(=O)O)C(=O)N[C@@H](CCC(N)=O)C(=O)N[C@@H](CCC(=O)O)C(=O)N[C@@H](CCCCN)C(=O)N[C@@H](CCC(N)=O)C(=O)N[C@@H](CCC(=O)O)C(=O)N[C@@H](CCCCN)C(=O)N[C@@H](CCC(=O)O)C(=O)N[C@@H](CCCCNC(=O)COCCOCCNC(=O)COCCOCCNC(=O)CC[C@H](NC(=O)CC[C@H](NC(=O)CCCCCCCCCCCCCCCCC(=O)O)C(=O)O)C(=O)O)C(=O)N[C@@H](CCC(N)=O)C(=O)N[C@@H](CCC(N)=O)C(=O)N[C@@H](C)C(=O)N[C@H](C(=O)N[C@H](C(=O)N[C@@H](CC(N)=O)C(=O)N[C@@H](C)C(=O)N[C@@H](CCC(N)=O)C(=O)N[C@H](C(=O)N[C@@H](CC(C)C)C(=O)N[C@@H](C)C(=O)N[C@@H](Cc1c[nH]cn1)C(=O)N[C@H](C(N)=O)C(C)C)[C@@H](C)CC)[C@@H](C)O)[C@@H](C)O)[C@@H](C)CC)[C@@H](C)CC)C(C)C)C(C)C` [Compound 46] (H-IVLSLDVPIGLLQILLEQEKQEKEK([AEEA-AEEA-γGlu-γGlu-C18 diacid])QQATTNAQILAHV-NH2) the EC50 was 11.7 nM.
